Like-named read-outs stand apart in the source and are kept apart here.
Experiments:
HCT-116 = test: Cytotoxicity assay (SRB), HCT-116; assay type: cell-based; conditions: Homo sapiens, HCT-116, 72 h, HCT116 cells, SRB, read-out: In Vitro Cellular Activity IC50 HCT116
Outline: (§1)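 Cells grown in RPMI 1640 with 5% FBS were treated with compound for three days (HCT-116, LoVo, MCF-7) or six days (BT474). Viable cell mass was quantified by sulforhodamine B staining of TCA-fixed protein and read at 540 nm.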

cyclin E/CDK2 enzyme = biological target: T1, cyclin E/CDK2 enzyme (Homo sapiens, UniProt P24941); test: CDK2 ELISA kinase assay (phospho-Rb ser 795 detection); assay type: biochemical
T1 construct: made in house; host or cells: Sf9 insect cells, recombinant baculovirus
Outline: (§2)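 ELISA format: plate-bound GST-Rb, 200 μM ATP, Sf9 cyclin/CDK enzyme, 1 h at 30° C; then anti-pRb Ser795 primary overnight at 4° C, HRP secondary, TMB. IC50 after no-substrate background subtraction.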

cyclin B/CDK1 enzyme = biological target: T2, cyclin B/CDK1 enzyme (Homo sapiens, UniProt P06493); test: CDK1 ELISA kinase assay (phospho-Rb ser 795 detection); assay type: biochemical
T2 construct: purchased New England BioLabs; host or cells: Sf9 insect cells, recombinant baculovirus
Outline: as §2

cyclin D1/cdk 4 enzyme = biological target: T3, cyclin D1/cdk 4 enzyme (Homo sapiens, UniProt P11802); test: CDK4 ELISA kinase assay (phospho-Rb ser 795 detection); assay type: biochemical
T3 construct: made in house; host or cells: Sf9 insect cells, recombinant baculovirus
Outline: as §2

MCF-7 = test: Cytotoxicity assay (SRB), MCF-7; assay type: cell-based; conditions: Homo sapiens, MCF7, 72 h, MCF-7 cells, SRB, read-out: In Vitro Cellular Activity IC50 MCF-7
Outline: as §1

LoVo = test: Cytotoxicity assay (SRB), LoVo; assay type: cell-based; conditions: Homo sapiens, LoVo, 72 h, LoVo cells, SRB, read-out: In Vitro Cellular Activity IC50 LOVO
Outline: as §1

BT474 = test: Cytotoxicity assay (SRB), BT474; assay type: cell-based
Outline: as §1

[1] = In Vitro Enzyme Assay, cyclin E/CDK2, read-out: CDK2 IC50
[2] = In Vitro Enzyme Assay, cyclin B/CDK1, read-out: CDK1 IC50
[3] = In Vitro Enzyme Assay, cyclin D1/cdk 4, read-out: CDK4 IC50
[4] = Homo sapiens, BT-474, 144 h, BT474 cells, 6 days, SRB; read-out: In Vitro Cellular Activity IC50 BT474
[5] = In Vitro Enzyme Assays, read-out: CDK2 IC50
[6] = In Vitro Enzyme Assays, read-out: CDK1 IC50
[7] = In Vitro Enzyme Assays, 200 μM ATP, read-out: CDK4 IC50
[8] = Homo sapiens, BT-474, 144 h, BT474 cells, SRB, 6 days; read-out: In Vitro Cellular Activity IC50 BT474

T3 sequence (P11802 whole entry, species assumed): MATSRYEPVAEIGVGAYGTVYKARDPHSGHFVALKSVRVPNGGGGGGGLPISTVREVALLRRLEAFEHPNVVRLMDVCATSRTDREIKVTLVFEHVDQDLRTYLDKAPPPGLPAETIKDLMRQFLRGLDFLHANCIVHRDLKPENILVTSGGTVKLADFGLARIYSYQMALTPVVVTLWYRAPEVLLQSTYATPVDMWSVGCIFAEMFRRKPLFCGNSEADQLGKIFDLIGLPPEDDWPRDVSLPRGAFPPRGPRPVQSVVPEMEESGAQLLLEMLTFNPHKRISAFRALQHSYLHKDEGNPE
T3 sequence (P24385 whole entry partner, species assumed): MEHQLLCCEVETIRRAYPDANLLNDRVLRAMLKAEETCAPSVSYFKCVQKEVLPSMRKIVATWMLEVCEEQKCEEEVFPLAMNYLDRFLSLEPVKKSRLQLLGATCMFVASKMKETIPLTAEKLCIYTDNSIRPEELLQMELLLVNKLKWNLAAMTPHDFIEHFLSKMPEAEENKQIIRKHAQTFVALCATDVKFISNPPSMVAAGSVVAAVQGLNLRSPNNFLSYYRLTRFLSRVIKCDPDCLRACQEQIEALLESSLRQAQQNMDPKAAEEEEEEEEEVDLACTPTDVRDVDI
T2 sequence (P06493 whole entry): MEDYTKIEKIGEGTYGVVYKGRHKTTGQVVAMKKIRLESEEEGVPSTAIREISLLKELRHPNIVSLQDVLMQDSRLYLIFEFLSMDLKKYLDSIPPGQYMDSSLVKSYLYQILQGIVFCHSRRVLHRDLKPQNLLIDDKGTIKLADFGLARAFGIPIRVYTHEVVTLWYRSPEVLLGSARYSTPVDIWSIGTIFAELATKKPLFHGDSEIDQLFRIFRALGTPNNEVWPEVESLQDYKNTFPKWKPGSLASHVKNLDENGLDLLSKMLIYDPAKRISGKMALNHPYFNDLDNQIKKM
T2 sequence (P14635 whole entry partner): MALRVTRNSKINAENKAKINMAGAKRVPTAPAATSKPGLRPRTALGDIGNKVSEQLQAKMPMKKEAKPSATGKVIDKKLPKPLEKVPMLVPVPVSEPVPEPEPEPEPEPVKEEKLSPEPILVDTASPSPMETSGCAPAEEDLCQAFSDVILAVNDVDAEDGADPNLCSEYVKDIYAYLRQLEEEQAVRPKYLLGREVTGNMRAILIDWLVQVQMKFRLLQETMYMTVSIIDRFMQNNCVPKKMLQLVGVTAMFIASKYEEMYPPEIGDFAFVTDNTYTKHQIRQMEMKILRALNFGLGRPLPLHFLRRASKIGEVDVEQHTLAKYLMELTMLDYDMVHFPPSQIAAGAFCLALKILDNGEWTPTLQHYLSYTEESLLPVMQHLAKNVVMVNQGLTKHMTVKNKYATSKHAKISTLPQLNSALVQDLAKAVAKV

Row | Structure (SMILES) | IC50 (HCT-116; 3 days) | IC50 (cyclin E/CDK2 enzyme; [1]) | IC50 (cyclin B/CDK1 enzyme; [2]) | IC50 (cyclin D1/cdk 4 enzyme; [3]) | IC50 (MCF-7; 3 days) | IC50 (LoVo; 3 days) | IC50 (BT474; [4]) | IC50 (cyclin E/CDK2 enzyme; [5]) | IC50 (cyclin B/CDK1 enzyme; [6]) | IC50 (cyclin D1/cdk 4 enzyme; [7]) | IC50 (HCT-116; three days) | IC50 (MCF-7; three days) | IC50 (LoVo; three days) | IC50 (BT474; [8]) | IC50 (cyclin B/CDK1 enzyme; CDK1 IC50, In Vitro Enzyme Assays) | IC50 (cyclin D1/cdk 4 enzyme; CDK4 IC50, In Vitro Enzyme Assays, 200 μM ATP)
1 | COc1ccc(-c2ccc3c(c2)C(=CNCc2ccc(O)c(O)c2)C(=O)NC3=O)cc1 [Example 764, 4-[(3,4-Dihydroxy-benzylamino)-methylene]-6-(4-methoxy-phenyl)-4H-isoquinoline-1,3-dione] | 9.3 µM | 7.3 µM | 16.5 µM | 0.06 µM | 10.3 µM | 8.6 µM | 23.1 µM | – | – | – | – | – | – | – | – | –
2 | COc1cccc(CC=Cc2ccc3c(c2)C(=CNCc2ccc(O)c(O)c2)C(=O)NC3=O)c1O [Example 804, 4-[(3,4-Dihydroxy-benzylamino)-methylene]-6-[3-(2-hydroxy-3-methoxy-phenyl)-propenyl]-4H-isoquinoline-1,3-dione] | 6.1 µM | 18 µM | 37.1 µM | 1 µM | 9.8 µM | 12.4 µM | 9.7 µM | – | – | – | – | – | – | – | – | –
3 | O=C1NC(=O)c2ccc(I)cc2/C1=C/Nc1ccc(N2CCC(C(=O)O)CC2)cc1 [Example 431, 1-(4-{[(Z)-(6-Iodo-1,3-dioxo-2,3-dihydroisoquinolin-4(1H)-ylidene)methyl]amino}phenyl)piperidine-4-carboxylic acid] | 6.1 µM | – | – | – | 8.8 µM | 5.8 µM | 6.4 µM | 4.1 µM | 8.6 µM | 1.3 µM | – | – | – | – | – | –
4 | O=C1NC(=O)c2ccc(Br)cc2/C1=C/NCCCCO [Example 211, (4Z)-6-Bromo-4-{[(4-hydroxybutyl)amino]methylene}isoquinoline-1,3(2H,4H)-dione] | – | – | – | – | – | – | – | 20.2 µM | 38 µM | 2.5 µM | 27 µM | 24 µM | 48 µM | 29 µM | – | –
5 | COc1cnc(CNC=C2C(=O)NC(=O)c3ccc(I)cc32)cc1O [Example 362, 6-Iodo-4-{[(4-hydroxy-5-methoxy-pyridin-2-ylmethyl)-amino]-methylene}-4H-isoquinoline-1,3-dione] | – | – | – | – | – | – | – | 0.5 µM | 14.7 µM | 0.01 µM | 1.3 µM | 1 µM | 0.7 µM | 0.2 µM | – | –
6 | O=C1NC(=O)c2ccc(I)cc2/C1=C/Nc1ccc(CN2CCC[C@H]2CO)cc1 [Example 376, L-4-{[4-(2-Hydroxymethyl-pyrrolidin-1-ylmethyl)-phenylamino]-methylene}-6-iodo-4H-isoquinoline-1,3-dione] | – | – | – | – | – | – | – | > 50 µM | > 50 µM | 0.43 µM | 3.6 µM | 0.55 µM | 2.6 µM | 0.37 µM | – | –
7 | CCCOc1ccc(CN/C=C2\C(=O)NC(=O)c3ccc(I)cc32)cc1OC(=O)CCl [Example 293, 5-({[(Z)-(6-Iodo-1,3-dioxo-2,3-dihydroisoquinolin-4(1H)-ylidene)methyl]amino}methyl)-2-propoxyphenyl chloroacetate] | – | – | – | – | – | – | – | > 50 µM | > 50 µM | 13.8 µM | 0.78 µM | 2.2 µM | 0.9 µM | 0.69 µM | – | –
8 | O=C1NC(=O)c2ccc(-c3ccccc3)cc2C1=CNCc1ccc(O)c(O)c1 [Example 620, 4-[(3,4-Dihydroxy-benzylamino)-methylene]-6-phenyl-4H-isoquinoline-1,3-dione] | 11.7 µM | 5.8 µM | 32.5 µM | 0.05 µM | 11 µM | 11.5 µM | 15.5 µM | – | – | – | – | – | – | – | – | –
9 | CCN(CC)CCn1ccc2cc(-c3ccc4c(c3)C(=CNc3ccc(N5CCN(C)CC5)cc3)C(=O)NC4=O)ccc21 [Example 852, 6-[1-(2-Diethylamino-ethyl)-1H-indol-5-yl]-4-{[4-(4-methyl-piperazin-1-yl)-phenylamino]-methylene}-4H-isoquinoline-1,3-dione] | > 50 µM | > 50 µM | > 50 µM | 0.31 µM | 46.3 µM | > 50 µM | > 50 µM | – | – | – | – | – | – | – | – | –
10 | O=C1NC(=O)c2ccc(-c3ccccc3Cl)cc2C1=CNCc1ccc(O)c(O)c1 [Example 780, 6-(2-Chloro-phenyl)-4-[(3,4-dihydroxy-benzylamino)-methylene]-4H-isoquinoline-1,3-dione] | 14.4 µM | 3.8 µM | 23.1 µM | 0.67 µM | 18.9 µM | 18.2 µM | 17.7 µM | – | – | – | – | – | – | – | – | –
11 | CC1CCCN1Cc1ccc(NC=C2C(=O)NC(=O)c3ccccc32)cc1 (stereo not drawn) [Example 617, 4-{[4-(2-Methyl-pyrrolidin-1-ylmethyl)-phenylamino]-methylene}-4H-isoquinoline-1,3-dione] | 7.6 µM | 21.3 µM | > 50 µM | 16.5 µM | 11.2 µM | 14 µM | 18.5 µM | – | – | – | – | – | – | – | – | –
12 | O=C1NC(=O)c2ccc(I)cc2/C1=C/Nc1ccc(CN2CCC[C@@H]2CO)cc1 [Example 368, D-4-{[4-(2-Hydroxymethyl-pyrrolidin-1-ylmethyl)-phenylamino]-methylene}-6-iodo-4H-isoquinoline-1,3-dione] | – | – | – | – | – | – | – | 30.3 µM | > 50 µM | 0.51 µM | 3.2 µM | 1.8 µM | 3.7 µM | 0.5 µM | – | –
13 | COCC(C)N1CCN(c2ccc(N/C=C3\C(=O)NC(=O)c4ccc(I)cc43)cc2)CC1 (stereo not drawn) [Example 399, (4Z)-6-Iodo-4-[({4-[4-(2-methoxy-1-methylethyl)piperazin-1-yl]phenyl}amino)methylene]isoquinoline-1,3(2H,4H)-dione] | 3 µM | – | – | – | 5.4 µM | 7 µM | 7.57 µM | > 50 µM | > 50 µM | 0.34 µM | – | – | – | – | – | –
14 | CC(C)[Si](Oc1cc(CN/C=C2\C(=O)NC(=O)c3ccc(Br)cc32)ccc1N)(C(C)C)C(C)C [Example 303, (4Z)-4-[({4-Amino-3-[(triisopropylsilyl)oxy]benzyl}amino)methylene]-6-bromoisoquinoline-1,3(2H,4H)-dione] | – | – | – | – | – | – | – | 3.7 µM | – | – | 5.3 µM | 10 µM | 4.6 µM | 3.1 µM | 33.9 µM | 0.39 µM
15 | O=C1NC(=O)c2ccc(-c3ccsc3)cc2/C1=C/Nc1ccc(C2CC=CCN2)cc1 (stereo not drawn) [Example 404, 4-{[4-(1,2,3,6-Tetrahydro-pyridin-2-yl)-phenylamino]-methylene}-6-thiophen-3-yl-4H-isoquinoline-1,3-dione] | 1.6 µM | – | – | – | 7.3 µM | 3.1 µM | 3.1 µM | 14.4 µM | 25.3 µM | 0.1 µM | – | – | – | – | – | –
16 | CC(C)N1CCN(c2ccc(N/C=C3\C(=O)NC(=O)c4ccc(-c5ccsc5)cc43)cn2)CC1 [Example 417, (4Z)-4-({[6-(4-Isopropylpiperazin-1-yl)pyridin-3-yl]amino}methylene)-6-(3-thienyl)isoquinoline-1,3(2H,4H)-dione] | 1.3 µM | – | – | – | 3.2 µM | 3.1 µM | 2.8 µM | > 50 µM | > 50 µM | 0.03 µM | – | – | – | – | – | –
17 | CCCOc1cc(CN/C=C2\C(=O)NC(=O)c3ccc(Br)cc32)cc(O)c1OCCC [Example 212, (4Z)-6-Bromo-4-{[(3-hydroxy-4,5-dipropoxybenzyl)amino]methylene}isoquinoline-1,3(2H,4H)-dione] | – | – | – | – | – | – | – | > 50 µM | > 50 µM | 0.77 µM | 25 µM | 37 µM | 30 µM | 47 µM | – | –
18 | CN1CCN(c2ccc(NC=C3C(=O)NCc4cc(-c5cccs5)ccc43)cc2)CC1 [Example 848, 4-{[4-(4-Methyl-piperazin-1-yl)-phenylamino]-methylene}-7-thiophen-2-yl-1,4-dihydro-2H-isoquinolin-3-one] | 7.1 µM | > 50 µM | 44.4 µM | > 50 µM | 10.9 µM | 13.3 µM | 13.8 µM | – | – | – | – | – | – | – | – | –
